Measured values taken from a melting point compilation (Tetko et al.; mined from patent text by program, amines drawn as free bases though some values may be those of a salt).

Row | SMILES | melting point [°C]
1 | O=C(CCl)Nc1ccc(Cl)cc1C(=O)c1ccccc1 | 119 to 120
2 | Cc1ccc(NCc2ccc[nH]2)cc1O | 115 to 117
3 | CCCCCCCC(=O)SSC(=O)CCCCCCC | 36 to 38
4 | CCCOc1cc(C)c(NC(=O)C(C)Br)c(C)c1 (stereo not given) | 148
5 | COc1ccc2c(c1)NC1(CCN(C)CC1)c1cccn1-2 | 124 to 125
6 | C=C1C(O)C(CO)OC1n1cc(I)c(=O)[nH]c1=O (stereo not given) | 169 to 172
7 | COc1cc2c(cc1Nc1ncc(Cl)c(N[C@@H]3CCCC[C@H]3NS(C)(=O)=O)n1)NC(=O)CN(CC1CC1)C2 | 97
8 | O=C1CCCc2ccc(O)cc21 | 170 to 173
9 | CN(C)c1ccc(NC(=O)N(CC2CCCC(CN(C(=O)Nc3ccc(N(C)C)cc3)C3CC4CCC3C4)C2)C2CC3CCC2C3)cc1 (stereo not given) | 110 to 115
10 | COc1ccc(-c2[nH]nc3c2C(=O)c2c(NC(=O)NNC(=O)c4cc(N)cc(N)c4)cccc2-3)cc1 | > 300
11 | COc1ccc2c(c1)C(=O)C(Cc1ccccn1)CO2 (stereo not given) | 112 to 114
12 | COc1cc(OC)c(C2CCN(C)CC2=O)c(OC)c1 (single isomer, unassigned; (+)) | 110 to 112
13 | CNC(=S)C1(c2cccc(C)n2)CCCS1 (stereo not given) | 121
14 | CC(C)=CCOC(C)C1CC=C2C3=C(CCC21C)C1(C)CCC(OC(=O)CCC(=O)O)C(C)(C)C1CC3 (stereo not given) | 60 to 67
15 | O=[N+]([O-])c1ccc(-c2nc(-c3ccco3)no2)c(Cl)c1 | 124 to 125
16 | Cc1cc(CN=C(O)c2cc(C(O)=NCc3cc(C)c(O)c(C(C)(C)C)c3)c(C(=O)O)cc2C(=O)O)cc(C(C)(C)C)c1O | 267 to 269
17 | CCOc1ccc(C(=O)Nc2ccc3ccc(OC)nc3n2)cc1 | 145
18 | COC(=O)C=Cc1cc(Cl)ccc1C(=O)OC | 87 to 89
19 | Clc1ccc2c(c1)N=C(N1CCN(C3CC3)CC1)c1ccccc1N2 | 196 to 199
20 | COC(=O)C1CSc2ccc(Cl)cc2C1=O (stereo not given) | 64 to 67
21 | COc1ccc(Br)c(C(=O)N2CCN(S(=O)(=O)c3ccc(F)cc3F)CC2)c1 | 194
22 | COc1cc(C(C)C)c2c(c1)S(=O)(=O)N(COC(=O)c1c(C)noc1C)C2=O | 137 to 139
23 | CCOC(=O)Cc1csc(NC(N)=O)n1 | 173 to 174

Row | SMILES | melting point [°C]
24 | CC(C)CC(NC(=O)O)C(=O)NC(C)(C)C#N (stereo not given) | 166 to 168
25 | CC=CCN1CCNC1=C[N+](=O)[O-] | 82 to 85
26 | OC(CNCCCCCCOCCCCc1ccccc1)c1cc(OCc2ccccc2)cc(OCc2ccccc2)c1 (stereo not given) | 65 to 67
27 | COc1cc(F)c2c(c1)Oc1ccccc1S2(=O)=O | 226 to 230
28 | N#Cc1cnc2cc3ccc(O)cc3cc2c1Nc1ccc(Cl)cc1Cl | > 300
29 | CCOC(=O)c1ccc2[nH]cc(CCCI)c2c1 | 81
30 | CCc1ccc(Nc2nc3cc(NC(=O)c4cccc(CCl)c4)ccc3o2)cc1 | 194 to 195
31 | CCCc1nn(CC)c(C(N)=O)c1N | 81 to 83
32 | COc1cc2c(cc1OC)C(=O)CC(C)(C)O2 | 105 to 106
33 | CCc1[nH]c(=O)c(C#N)cc1-c1ccncc1 | > 300
34 | CCOc1ccc(OC)cc1 | 30 to 31
35 | CCn1nc(C(N)=O)cc1CC(C)C | 125 to 126
36 | CCOC(=O)N1CCN(c2c(F)c(N)c3c(=O)c(C(=O)O)cn(C4CC4)c3c2F)C(C)C1 (stereo not given) | 220 to 225
37 | COC(=O)c1cc(OC)c(O)c(C23CC4CC(CC(C4)C2)C3)c1 | 179
38 | NC(=O)N(O)CCNS(=O)(=O)c1ccc2ccccc2c1 | 174
39 | Clc1cc2nnnn2c2cnccc12 | 176 to 177
40 | CC(=O)Nc1ccc([N+](=O)[O-])c(C=O)c1 | 131 to 135
41 | COC(=O)NNc1n[nH]c2cc(Cl)ccc12 | 223 to 224
42 | COC(=O)c1ccc(OC)c(C=O)c1O | 123 to 124
43 | CC(=O)OCC(=O)C12OCOC1CC1C3CCC4=CC(=O)C=CC4(C)C3(F)C(O)CC12C (stereo not given) | 283 to 285
44 | CN(C)c1ccc(S(=O)(=O)N2CC(OC(=O)C(C)(C)C)CC2=O)cc1 (stereo not given) | 117 to 118
45 | COc1ccc(Cn2nc(CO)c3cc(OC)c(OC)cc32)cc1OC | 187

More lines, now with the values ahead:

Row | melting point [°C] | SMILES
46 | 213 to 214 | Cn1ncc(/C=C/C(=O)Nc2ccc(Cn3ccnc3)cc2)c1-c1ccc(F)cc1
47 | 96 to 99 | COc1ccc(C(c2ccc(OC)c(OCc3ccccc3)c2)n2cncn2)cc1OCc1ccccc1
48 | 253 to 254 | Cc1cc(NCc2ccccc2)c2cc(NC(=O)C=Cc3ccccc3Cl)ccc2n1
49 | 85.5 to 88 | O=Cc1cc(Cl)ccc1Sc1ccccc1F
50 | 84 to 85 | CON=C(c1cc(C)no1)c1ccccc1CON=C(C)c1ccc(Cl)c(Cl)c1
51 | 187 to 190 | CC(C)(C)NC(=O)/C=C/c1ccc(C(=O)c2c(-c3ccc(O)cc3)sc3cc(O)ccc23)cc1
52 | 105 to 108 | CC(C)(C)OC(=O)NC1CCN(C/C=C\CC(c2ccccc2)c2ccccc2)CC1
53 | 157 to 158 | NN1C=Nc2ccc(Cl)cc2C1(O)c1ccccc1 (stereo not given)
54 | 220 to 221 | CN1CCN(c2ccc(-c3ccc4c(c3)C=C(C(=O)Nc3ccc(CN(C)C5CCOCC5)cc3)CCO4)cc2)CC1
55 | 185 to 188 | Cc1ccc(C(O)C2C(c3ccccc3)CC(=O)N2C)s1 (stereo not given)
56 | 257 to 260 | Cc1cc2c(cc1Sc1ccc(C(=O)O)cn1)C(C)(C)CCC2(C)C
57 | 204 | CCc1cn2ccccc2c1S(=O)(=O)c1ccc(O)cc1
58 | 171 to 176 | Cn1ccnc1CCNS(=O)(=O)c1ccccc1NS(=O)(=O)c1cccc(C(F)(F)F)c1
59 | 315 to 318 | O=c1[nH]c2ccccc2c2nc(-c3ccc(Cl)cc3)nn12
60 | 159 to 162 | O=c1oc(-c2ccc(F)cc2)nc2cccc(Cl)c12
61 | 212 to 213 | Cc1c2c(c(C)c(NC(=O)CC(C)(C)C)c1-c1ccccc1)C(c1ccc(C(C)C)cc1)CO2 (stereo not given)
62 | 163 to 164 | COc1cc2c(cc1OCc1ccccc1)CCN(C(=O)c1ccccc1OC)C2=O
63 | 106 to 107 | Fc1ccc(CNc2nc(Nc3cccc(C(F)(F)F)c3)nc(C(F)(F)F)n2)cc1
64 | 112 to 114 | C=C(C)C(=O)Oc1ccc(S(=O)(=O)N(C(=O)OC(C)(C)C)c2ccccc2)cc1
65 | 130 to 132 | Cc1c(CO)c2cnnc(OCc3ccccc3)c2n1Cc1ccccc1
66 | 77 | CC(C)c1ccc(S(=O)(=O)N2CCCC2c2ccc(F)cc2)cc1 (racemic)
67 | 96 to 96.8 | CNCCOc1cccc2c1c1cc(C)ccc1n2Cc1ccccc1
68 | 187 to 188 | COc1ccc(C(=O)Nc2ccccc2)cc1NS(=O)(=O)c1cccc2cccnc12
69 | 157 to 158 | CC1=C(c2ccccc2)C(=O)N(C(C)(C)C(=O)c2cc(F)cc(F)c2)CO1
70 | 125 to 128 | CC(C)C1=C(Sc2ccccc2)C(c2ccc(F)cc2)=C(C(C)O)C(C(C)C)N1C (stereo not given)
71 | 259 to 261 | O=P1(c2ccc(-c3ccccc3)cc2)c2ccccc2CN1c1ccccc1 (stereo not given)
72 | 93 to 94 | CCOCc1cc2cc(Br)ccc2oc1=Nc1cccc(OC)c1
73 | 203 to 205 | O=C(O)C1Nc2ccccc2-c2c([N+](=O)[O-])cnn21 (stereo not given)

Row | melting point [°C] | SMILES
74 | 58 to 65 | O=C1NC(=O)C(Cc2ccc(SCCc3ccccc3)cc2)S1 (stereo not given)
75 | 241 to 242 | O=C1c2ccccc2S(=O)(=O)c2cc(C3=NCCN3)ccc21
76 | 132 to 135 | CCCCc1nc2ccccn2c(=O)c1-c1ccc2[nH]ccc2c1
77 | 123 to 125 | O=C(NCc1nccs1)c1ccnc(N2CCN(Cc3ccc(F)cc3)C2=O)c1
78 | 65 to 67 | O=C(CCC1CCN(Cc2ccccc2)CC1)c1ccc(F)cc1
79 | 164 to 165 | N=C(Nc1ccc(CCCC(=O)Nc2ccccc2)cc1)N1CCCC1
80 | 121 to 122 | O=C(O)C(=O)c1ccc(OCCCCCCOc2ccccc2)cc1
81 | 218 | COc1cc2c(cc1OC)[C@@H]1CCCC[C@@H]1N=C2c1ccc(NC(C)=O)cc1 (racemic)
82 | 125 | COc1cccc(C(=O)N[C@H]2C[C@@H](c3cc(NC(=O)Cc4cccc5ccccc45)n[nH]3)C2)c1
83 | 90 to 92 | COC(=O)C=C(C)c1ccc(-c2ccc(F)cc2F)cc1
84 | 257 | COc1ccc(-c2[nH]nc3c2C(=O)c2c(NC(=O)NNC(=O)c4ccccc4N)cccc2-3)cc1
85 | 152 to 153 | O=C(NO)c1ccc(CNC(=O)c2[nH]c(-c3ccccc3)cc2-c2ccc(F)cc2)o1
86 | > 260 | CN1CCN(c2ccc(C=CC(=O)N3CCc4c([nH]c5ccccc45)C3c3ccc4c(c3)CCO4)cn2)CC1 (stereo not given)
87 | 207 to 209 | N#CC(C(=O)Nc1ccccc1)C(=O)c1ccc[nH]1 (stereo not given)
88 | 145 to 149 | CN(Cc1ccccc1)C1Cc2cccc3[nH]c(=O)n(c23)C1 (stereo not given)
89 | 132 | O=C(c1ccc(F)cc1)C1CCN(CCCN2c3cccc4cccc(c34)S2(=O)=O)CC1
90 | 252 to 254 | O=C(O)Cc1cccc2c(-c3ccc([N+](=O)[O-])cc3)nccc12
91 | 72 to 75 | COc1ccc2cc(C(=O)C(C)O[Si](C)(C)C)ccc2c1 (stereo not given)
92 | 111 | c1ccc(C(c2ccc3cccnc3c2)n2ccnc2)cc1 (stereo not given)
93 | 94 to 96 | CS(=O)(=O)c1ccc(-c2cc(CO[N+](=O)[O-])nn2Cc2ccccc2)cc1
94 | 166 to 170 | Cc1ccc2c(=O)c3cc(F)ccc3sc2c1
95 | 150 to 152 | COc1ccc2c(c1)c(C=O)c(C)n2C(=O)c1ccc(Cl)cc1
96 | > 250 | O=C(O)c1cnc2c(NC(=O)c3c(Cl)cccc3Cl)cccc2c1
97 | 110 | C=CCC(F)(F)C(O)C(CC(C)C)NC(=O)c1ccccc1 (stereo not given)
98 | 288 to 289 | COc1ccc(N(C)c2nc(NC(=O)C(C)(C)C)nc3[nH]c4ccccc4c23)cc1
99 | 76 to 77 | CCN/C(=C1/Sc2ccccc2C1=O)c1ccccc1CC
100 | 100 to 101 | CN(C(CCN1C(=O)c2ccccc2C1=O)C(=O)NO)S(=O)(=O)c1ccc(Oc2ccc(F)cc2)cc1 (stereo not given)
